Measurements: ChEMBL document CHEMBL4507276 (2021)

Experiments:
Details in all cases: Compound concentration 1000.0 nM
[1] = target: Cyclin-dependent kinase 7 (Homo sapiens) (UniProt P50613)
[2] = target: Non-receptor tyrosine-protein kinase TYK2 (Homo sapiens) (UniProt P29597)
[3] = target: RAC-beta serine/threonine-protein kinase (Homo sapiens) (UniProt P31751)
[4] = target: Proto-oncogene tyrosine-protein kinase receptor Ret (Homo sapiens) (UniProt P07949)
[5] = target: Mitogen-activated protein kinase 10 (Homo sapiens) (UniProt P53779)
[6] = target: Tyrosine-protein kinase Fyn (Homo sapiens) (UniProt P06241)
[7] = target: Serine/threonine-protein kinase TBK1 (Homo sapiens) (UniProt Q9UHD2)
[8] = tested on: Hepatocyte growth factor receptor (Homo sapiens), P08581 [Y1235D]
[9] = target: MAP/microtubule affinity-regulating kinase 3 (Homo sapiens) (UniProt P27448)
[10] = target: T1, Mitogen-activated protein kinase 13 (Homo sapiens) (UniProt O15264)
T1 sequence (whole entry): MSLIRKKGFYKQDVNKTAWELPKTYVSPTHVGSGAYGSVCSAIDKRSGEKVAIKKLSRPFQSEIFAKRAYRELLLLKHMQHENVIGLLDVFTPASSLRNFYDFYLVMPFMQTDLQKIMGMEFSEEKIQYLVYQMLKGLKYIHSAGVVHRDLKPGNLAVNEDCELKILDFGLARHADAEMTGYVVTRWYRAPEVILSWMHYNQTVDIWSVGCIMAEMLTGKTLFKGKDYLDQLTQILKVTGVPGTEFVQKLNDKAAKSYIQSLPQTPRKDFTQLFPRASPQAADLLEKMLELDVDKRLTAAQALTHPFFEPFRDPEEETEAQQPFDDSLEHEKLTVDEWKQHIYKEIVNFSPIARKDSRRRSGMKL

[11] = target: Protein-tyrosine kinase 6 (Homo sapiens) (UniProt Q13882)
[12] = target: Serine/threonine-protein kinase MRCK gamma (Homo sapiens) (UniProt Q6DT37)
[13] = target: Mitogen-activated protein kinase 9 (Homo sapiens) (UniProt P45984)
[14] = target: Cyclin-dependent kinase 8 (Homo sapiens) (UniProt P49336)
[15] = target: RAF proto-oncogene serine/threonine-protein kinase (Homo sapiens) (UniProt P04049)
[16] = target: Casein kinase I isoform delta (Homo sapiens) (UniProt P48730)
[17] = target: Fibroblast growth factor receptor 1 (Homo sapiens) (UniProt P11362)
[18] = target: Serine/threonine-protein kinase PLK2 (Homo sapiens) (UniProt Q9NYY3)
[19] = target: T2, Inhibitor of nuclear factor kappa-B kinase subunit epsilon (Homo sapiens) (UniProt Q14164)
T2 sequence (whole entry): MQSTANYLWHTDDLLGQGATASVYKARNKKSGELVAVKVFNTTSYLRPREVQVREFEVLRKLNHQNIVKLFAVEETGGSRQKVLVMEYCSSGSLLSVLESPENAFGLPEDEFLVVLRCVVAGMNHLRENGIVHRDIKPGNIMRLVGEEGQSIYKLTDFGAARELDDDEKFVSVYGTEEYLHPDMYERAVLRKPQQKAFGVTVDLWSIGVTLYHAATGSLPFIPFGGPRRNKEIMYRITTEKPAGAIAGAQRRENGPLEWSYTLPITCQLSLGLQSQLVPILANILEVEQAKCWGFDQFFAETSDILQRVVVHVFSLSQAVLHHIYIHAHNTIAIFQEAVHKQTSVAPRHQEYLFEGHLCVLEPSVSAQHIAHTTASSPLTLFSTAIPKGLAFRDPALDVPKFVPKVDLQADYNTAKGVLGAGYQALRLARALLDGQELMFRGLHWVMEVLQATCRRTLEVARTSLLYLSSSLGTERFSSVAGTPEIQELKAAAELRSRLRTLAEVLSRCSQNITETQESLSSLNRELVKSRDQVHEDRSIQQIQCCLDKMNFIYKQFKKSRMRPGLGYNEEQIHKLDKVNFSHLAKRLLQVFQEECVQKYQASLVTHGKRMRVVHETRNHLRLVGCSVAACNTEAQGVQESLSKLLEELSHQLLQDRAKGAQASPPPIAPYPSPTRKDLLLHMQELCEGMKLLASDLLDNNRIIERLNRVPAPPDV

[20] = target: Serine/threonine-protein kinase Nek6 (Homo sapiens) (UniProt Q9HC98)
[21] = target: Wee1-like protein kinase 2 (Homo sapiens) (UniProt P0C1S8)
[22] = tested on: Receptor-type tyrosine-protein kinase FLT3 (Homo sapiens), P36888 [UNDEFINED MUTATION]
[23] = target: Serine/threonine-protein kinase DCLK1 (Homo sapiens) (UniProt O15075)
[24] = target: Phosphatidylinositol 4-phosphate 5-kinase type-1 alpha (Homo sapiens) (UniProt Q99755)
[25] = target: RAC-alpha serine/threonine-protein kinase (Homo sapiens) (UniProt P31749)
[26] = target: Serine/threonine-protein kinase 26 (Homo sapiens) (UniProt Q9P289)
[27] = target: Ribosomal protein S6 kinase alpha-6 (Homo sapiens) (UniProt Q9UK32)
[28] = target: Ribosomal protein S6 kinase alpha-1 (Homo sapiens) (UniProt Q15418)
[29] = tested on: Epidermal growth factor receptor (Homo sapiens), P00533 [UNDEFINED MUTATION]

Measured: residual activity

Serine/threonine-protein kinase Nek6 (Homo sapiens), sequence (Q9HC98 whole entry): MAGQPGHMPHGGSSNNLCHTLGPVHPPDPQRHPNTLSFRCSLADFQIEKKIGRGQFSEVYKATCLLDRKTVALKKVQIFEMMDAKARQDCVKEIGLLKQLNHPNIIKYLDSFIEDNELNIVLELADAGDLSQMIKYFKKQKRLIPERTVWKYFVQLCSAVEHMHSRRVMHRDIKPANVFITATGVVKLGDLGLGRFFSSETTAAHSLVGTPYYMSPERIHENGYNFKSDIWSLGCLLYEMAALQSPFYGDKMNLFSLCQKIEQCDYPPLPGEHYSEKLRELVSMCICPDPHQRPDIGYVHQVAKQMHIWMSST
RAC-beta serine/threonine-protein kinase (Homo sapiens), sequence (P31751 whole entry): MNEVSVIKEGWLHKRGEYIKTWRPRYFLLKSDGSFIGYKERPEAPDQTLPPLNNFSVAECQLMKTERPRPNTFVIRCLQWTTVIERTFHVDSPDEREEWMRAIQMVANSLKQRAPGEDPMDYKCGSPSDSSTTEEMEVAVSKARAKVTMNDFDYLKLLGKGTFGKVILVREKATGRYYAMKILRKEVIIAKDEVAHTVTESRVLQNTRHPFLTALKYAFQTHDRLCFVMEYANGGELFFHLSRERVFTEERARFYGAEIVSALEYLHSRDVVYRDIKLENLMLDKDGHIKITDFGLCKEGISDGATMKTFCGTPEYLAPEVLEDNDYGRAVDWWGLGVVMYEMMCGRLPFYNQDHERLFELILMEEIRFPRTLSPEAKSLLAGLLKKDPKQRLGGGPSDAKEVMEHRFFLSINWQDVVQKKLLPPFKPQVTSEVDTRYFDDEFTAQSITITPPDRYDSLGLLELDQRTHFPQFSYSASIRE
Cyclin-dependent kinase 8 (Homo sapiens), sequence (P49336 whole entry): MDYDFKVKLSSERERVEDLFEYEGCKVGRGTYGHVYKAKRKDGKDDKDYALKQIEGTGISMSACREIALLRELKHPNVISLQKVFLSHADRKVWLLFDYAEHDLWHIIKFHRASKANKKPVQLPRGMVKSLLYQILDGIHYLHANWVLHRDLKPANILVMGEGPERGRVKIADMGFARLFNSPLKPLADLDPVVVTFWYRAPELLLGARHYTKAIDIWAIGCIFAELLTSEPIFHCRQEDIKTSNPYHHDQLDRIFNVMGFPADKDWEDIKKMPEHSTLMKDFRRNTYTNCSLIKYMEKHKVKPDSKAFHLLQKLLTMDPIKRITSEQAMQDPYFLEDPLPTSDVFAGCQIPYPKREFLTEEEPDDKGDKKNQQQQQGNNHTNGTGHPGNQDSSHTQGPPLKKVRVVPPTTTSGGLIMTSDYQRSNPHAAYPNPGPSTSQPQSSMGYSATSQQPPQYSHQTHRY
Mitogen-activated protein kinase 9 (Homo sapiens), sequence (P45984 whole entry, looked up): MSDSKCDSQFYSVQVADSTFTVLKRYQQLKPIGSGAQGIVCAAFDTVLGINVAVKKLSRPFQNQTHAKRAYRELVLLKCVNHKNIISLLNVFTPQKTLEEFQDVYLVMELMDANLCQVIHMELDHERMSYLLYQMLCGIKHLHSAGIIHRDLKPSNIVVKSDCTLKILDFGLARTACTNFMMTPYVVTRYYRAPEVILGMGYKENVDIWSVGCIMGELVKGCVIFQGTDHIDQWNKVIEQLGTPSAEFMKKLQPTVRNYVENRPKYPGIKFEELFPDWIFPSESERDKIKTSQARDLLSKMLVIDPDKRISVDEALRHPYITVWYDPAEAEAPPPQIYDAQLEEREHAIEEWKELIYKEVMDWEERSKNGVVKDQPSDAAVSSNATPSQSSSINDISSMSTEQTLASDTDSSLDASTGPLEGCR
Non-receptor tyrosine-protein kinase TYK2 (Homo sapiens), sequence (P29597 whole entry): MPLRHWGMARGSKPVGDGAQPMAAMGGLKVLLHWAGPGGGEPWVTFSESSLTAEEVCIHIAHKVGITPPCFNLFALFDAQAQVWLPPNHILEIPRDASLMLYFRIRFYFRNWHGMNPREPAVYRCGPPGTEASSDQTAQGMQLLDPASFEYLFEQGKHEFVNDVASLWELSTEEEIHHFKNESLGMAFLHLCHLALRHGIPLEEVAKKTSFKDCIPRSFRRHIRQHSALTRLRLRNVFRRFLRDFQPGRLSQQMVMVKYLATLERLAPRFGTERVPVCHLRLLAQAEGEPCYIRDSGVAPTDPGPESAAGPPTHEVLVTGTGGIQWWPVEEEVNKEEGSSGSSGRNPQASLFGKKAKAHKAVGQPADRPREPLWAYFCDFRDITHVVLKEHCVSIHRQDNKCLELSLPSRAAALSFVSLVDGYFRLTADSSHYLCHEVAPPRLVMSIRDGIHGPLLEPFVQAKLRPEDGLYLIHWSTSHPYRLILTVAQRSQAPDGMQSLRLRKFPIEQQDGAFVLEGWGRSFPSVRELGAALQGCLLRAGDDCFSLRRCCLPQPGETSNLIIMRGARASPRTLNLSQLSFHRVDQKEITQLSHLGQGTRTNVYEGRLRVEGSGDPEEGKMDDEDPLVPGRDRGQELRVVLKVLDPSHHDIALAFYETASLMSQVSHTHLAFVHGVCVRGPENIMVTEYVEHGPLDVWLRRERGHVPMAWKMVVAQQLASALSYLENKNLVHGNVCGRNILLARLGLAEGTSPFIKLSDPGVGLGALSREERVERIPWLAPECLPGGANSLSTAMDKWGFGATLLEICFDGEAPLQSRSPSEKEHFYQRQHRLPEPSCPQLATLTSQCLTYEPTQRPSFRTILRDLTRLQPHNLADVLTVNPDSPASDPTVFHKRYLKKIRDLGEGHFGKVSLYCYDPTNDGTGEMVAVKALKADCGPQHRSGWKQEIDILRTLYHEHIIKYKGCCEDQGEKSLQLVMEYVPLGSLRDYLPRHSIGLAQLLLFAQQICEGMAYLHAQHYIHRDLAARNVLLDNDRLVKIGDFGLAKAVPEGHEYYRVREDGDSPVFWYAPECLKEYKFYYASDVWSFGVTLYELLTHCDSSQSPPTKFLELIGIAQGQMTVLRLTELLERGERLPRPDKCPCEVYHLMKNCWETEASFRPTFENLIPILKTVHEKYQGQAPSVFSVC
Fibroblast growth factor receptor 1 (Homo sapiens), sequence (P11362 22-822 limits assumed): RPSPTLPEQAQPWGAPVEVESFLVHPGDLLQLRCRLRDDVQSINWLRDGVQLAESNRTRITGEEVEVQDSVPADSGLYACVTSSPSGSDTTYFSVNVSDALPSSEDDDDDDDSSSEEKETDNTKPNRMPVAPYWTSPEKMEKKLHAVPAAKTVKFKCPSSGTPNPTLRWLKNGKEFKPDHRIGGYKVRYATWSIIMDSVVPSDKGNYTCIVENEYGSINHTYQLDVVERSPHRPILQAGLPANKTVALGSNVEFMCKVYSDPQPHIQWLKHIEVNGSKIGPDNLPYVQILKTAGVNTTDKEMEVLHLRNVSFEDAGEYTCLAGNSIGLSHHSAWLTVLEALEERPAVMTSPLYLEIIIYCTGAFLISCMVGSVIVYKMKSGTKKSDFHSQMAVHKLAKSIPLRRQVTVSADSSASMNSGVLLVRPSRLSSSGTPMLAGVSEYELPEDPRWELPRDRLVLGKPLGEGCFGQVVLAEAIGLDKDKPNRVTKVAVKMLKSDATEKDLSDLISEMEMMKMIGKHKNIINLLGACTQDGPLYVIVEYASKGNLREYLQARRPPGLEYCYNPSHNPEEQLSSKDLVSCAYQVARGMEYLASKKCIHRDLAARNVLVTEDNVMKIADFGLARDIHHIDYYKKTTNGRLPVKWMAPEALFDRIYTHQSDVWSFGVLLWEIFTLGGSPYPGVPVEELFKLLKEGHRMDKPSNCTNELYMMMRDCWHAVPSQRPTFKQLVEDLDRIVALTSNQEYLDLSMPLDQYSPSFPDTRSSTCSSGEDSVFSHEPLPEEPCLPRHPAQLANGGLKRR
MAP/microtubule affinity-regulating kinase 3 (Homo sapiens), sequence (P27448 whole entry, looked up): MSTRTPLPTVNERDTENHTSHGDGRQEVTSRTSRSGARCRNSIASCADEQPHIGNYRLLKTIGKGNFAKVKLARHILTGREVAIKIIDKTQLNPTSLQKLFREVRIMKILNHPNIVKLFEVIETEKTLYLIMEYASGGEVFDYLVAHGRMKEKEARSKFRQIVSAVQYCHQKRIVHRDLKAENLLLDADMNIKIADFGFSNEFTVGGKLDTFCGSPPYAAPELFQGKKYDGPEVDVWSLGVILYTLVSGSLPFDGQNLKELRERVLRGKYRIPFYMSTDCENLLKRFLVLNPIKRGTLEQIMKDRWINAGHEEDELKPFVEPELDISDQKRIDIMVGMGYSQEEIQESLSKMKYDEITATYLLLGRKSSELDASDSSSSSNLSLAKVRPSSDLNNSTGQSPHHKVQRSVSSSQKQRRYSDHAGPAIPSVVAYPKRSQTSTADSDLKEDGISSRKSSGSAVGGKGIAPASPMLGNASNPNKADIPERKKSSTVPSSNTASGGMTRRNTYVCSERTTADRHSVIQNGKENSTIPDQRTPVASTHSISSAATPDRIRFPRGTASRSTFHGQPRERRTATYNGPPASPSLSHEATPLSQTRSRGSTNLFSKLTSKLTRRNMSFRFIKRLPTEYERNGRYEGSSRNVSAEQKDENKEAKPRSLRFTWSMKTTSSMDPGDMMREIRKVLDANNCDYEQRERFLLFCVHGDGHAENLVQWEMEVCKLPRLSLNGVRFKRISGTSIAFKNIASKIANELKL
Cyclin-dependent kinase 7 (Homo sapiens), sequence (P50613 whole entry): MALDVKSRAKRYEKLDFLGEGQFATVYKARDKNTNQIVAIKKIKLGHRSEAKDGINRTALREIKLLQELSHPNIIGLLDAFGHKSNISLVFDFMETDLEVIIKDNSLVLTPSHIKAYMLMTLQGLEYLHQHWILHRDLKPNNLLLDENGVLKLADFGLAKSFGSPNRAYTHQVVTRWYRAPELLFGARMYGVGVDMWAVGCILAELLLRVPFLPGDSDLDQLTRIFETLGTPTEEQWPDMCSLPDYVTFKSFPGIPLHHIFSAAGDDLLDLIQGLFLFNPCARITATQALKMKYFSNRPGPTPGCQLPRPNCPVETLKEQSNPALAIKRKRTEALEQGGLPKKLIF

CN(C)C(=O)Cn1cc(-c2nc(C3(c4ccc(-c5cnc(N)nc5)cc4)CC3)no2)cn1 [BI 0153]
inactive: [1] 72% | [2] 90% | [3] 100% | [4] 94% | [5] 93% | [6] 100% | [7] 87% | [8] 98% | [9] 100% | [10] 91% | [11] 100% | [12] 82% | [13] 81% | [14] 100% | [15] 100% | [16] 100% | [17] 72% | [18] 93% | [19] 57% | [20] 81% | [21] 99% | [22] 100% | [23] 88% | [24] 95% | [25] 97% | [26] 89% | [27] 83% | [28] 99% | [29] 80%

CN(C)C(=O)Cn1cc(-c2nc([C@@](C)(c3ccc(-c4cnc(N)nc4)cc3)C3CC3)no2)cn1 [BI 665915]
inactive: [1] 59% | [2] 65% | [3] 84% | [4] 94% | [5] 94% | [6] 86% | [7] 85% | [8] 96% | [9] 99% | [10] 93% | [11] 100% | [12] 87% | [13] 75% | [14] 89% | [15] 100% | [16] 96% | [17] 95% | [18] 56% | [19] 86% | [20] 100% | [21] 100% | [22] 100% | [23] 71% | [24] 90% | [25] 94% | [26] 97% | [27] 96% | [28] 93% | [29] 100%
